Experimental data published in ChEMBL document CHEMBL5108059, “Discovery of 2-Methyl-2-(4-(2-methyl-8-(1H-pyrrolo[2,3-b]pyridin-6-yl)-1H-naphtho[1,2-d]imidazol-1-yl)phenyl)propanenitrile as a Novel PI3K/mTOR Inhibitor with Enhanced Antitumor Efficacy In Vitro and In Vivo” (J Med Chem, 2022).
Active and inactive are the calls of the source. The rule behind the calls is not given here.

Key:
[1] = target: Phosphatidylinositol 4,5-bisphosphate 3-kinase catalytic subunit alpha isoform (Homo sapiens, UniProt P42336); assay: Inhibition of PI3Kalpha (unknown origin) using PIP2 as substrate incubated for 1 hr in presence of ATP by Kinase Glo luminescence assay
[2] = target: DNA-dependent protein kinase catalytic subunit (Homo sapiens) (UniProt P78527); assay: Inhibition of DNA-PK (unknown origin) at 1 uM
HCT-15 = assay: Antiproliferative activity against human HCT-15 cells with PIK3CA mutation assessed as inhibition of cell growth incubated for 48 to 72 hrs by MTT assay; assay type: functional, cell-based
NCI-H3122 = assay: Antiproliferative activity against human NCI-H3122 cells assessed as inhibition of cell growth incubated for 48 to 72 hrs by MTT assay; assay type: functional, cell-based
HeLa [3] = assay: Induction of apoptosis in human HeLa cells assessed as viable cells at 0.15625 uM incubated for 36 hrs by Annexin V-FITC/PI staining based flow cytometric analysis (reference value: 96.14 %); assay type: functional; details: read-out: Activity
HeLa [4] = assay: Induction of apoptosis in human HeLa cells assessed as viable cells at 0.625 uM incubated for 36 hrs by Annexin V-FITC/PI staining based flow cytometric analysis (reference value: 96.14 %); assay type: functional; details: read-out: Activity
HeLa [5] = assay: Induction of apoptosis in human HeLa cells assessed as viable cells at 2.5 uM incubated for 36 hrs by Annexin V-FITC/PI staining based flow cytometric analysis (reference value: 96.14 %); assay type: functional; details: read-out: Activity
HeLa [6] = assay: Induction of apoptosis in human HeLa cells assessed as late apoptotic cells at 2.5 uM incubated for 36 hrs by Annexin V-FITC/PI staining based flow cytometric analysis (reference value: 1.4 %); assay type: functional
HeLa [7] = assay: Inhibition of PI3K/mTOR signalling pathway in human HeLa cells assessed as inhibition of S6 protein phosphorylation incubated for 24 hrs by Western blot analysis; assay type: cell-based; details: dose 0.3125-2.5 µM, DDE = dose-dependent effect
[8] = AUC (0 to infinity) in Sprague-Dawley rat at 1 mg/kg, iv measured for 24 hrs by LC-MS/MS analysis; assay type: ADME, organism-based; set-up: time 24 hrs, dose 1 mg/kg, route iv; details: in vivo
[9] = AUC (0 to infinity) in Sprague-Dawley rat at 10 mg/kg, po measured for 24 hrs by LC-MS/MS analysis; assay type: ADME, organism-based; set-up: time 24 hrs, dose 10 mg/kg, route po; details: in vivo
HeLa [10] = assay: Antitumor activity against human HeLa cells xenografted in BALB/c nude mouse assessed as tumor growth inhibition at 60 mg/kg, IG administered daily for 30 days and measured every 2 days relative to control; assay type: functional; details: po, 720 h, time 30 day, read-out: TGI
SW-620 [11] = assay: Antitumor activity against human SW620 cells xenografted in BALB/c nude mouse assessed as tumor growth inhibition at 30 mg/kg, IG administered daily for 30 days and measured every 2 days relative to control; assay type: functional; details: SW-620, po, 720 h, time 30 day, read-out: TGI
SW-620 [12] = assay: Antitumor activity against human SW620 cells xenografted in BALB/c nude mouse assessed as tumor growth inhibition at 60 mg/kg, IG administered daily for 30 days and measured every 2 days relative to control; assay type: functional; details: SW-620, po, 720 h, time 30 day, read-out: TGI
[13] = Toxicity in BALB/c nude mouse xenografted with human HeLa cells assessed as reduction in body weight at 15 to 60 mg/kg, IG administered daily for 30 days and measured every 2 days; assay type: organism-based; details: in vivo, po, 720 h, dose 15-60 mg/kg, time 30 day
Mus musculus = assay: In vivo inhibition of PI3K/mTOR signalling pathway in BALB/c nude mouse xenografted with human HeLa cells assessed as downregulation of pS6 protein expression in tumor at 15 to 60 mg/kg, IG administered daily for 30 days; assay type: functional, organism-based; details: dose 15-60 mg/kg, time 30.0 day
HeLa [14] = assay: Antitumor activity against human HeLa cells xenografted in BALB/c nude mouse assessed as reduction in Ki67 expression in tumor administered intragastrically daily for 30 days by immunohistochemical analysis; assay type: functional; details: dose 15-60 mg/kg, route ig, time 30.0 day
[15] = Toxicity in BALB/c nude mouse xenografted with human HeLa cells assessed as pathological changes in spleen at 60 mg/kg, IG administered daily for 30 days by hematoxylin and eosin staining based microscopic analysis; assay type: organism-based; details: in vivo, po, 720 h, time 30 day
[16] = Toxicity in BALB/c nude mouse xenografted with human HeLa cells assessed as pathological changes in lung at 60 mg/kg, IG administered daily for 30 days by hematoxylin and eosin staining based microscopic analysis; assay type: organism-based; details: in vivo, po, 720 h, time 30 day
[17] = target: Phosphatidylinositol 4,5-bisphosphate 3-kinase catalytic subunit beta isoform (Homo sapiens, UniProt P42338); assay: Inhibition of PI3Kbeta (unknown origin) using L-alpha-phosphatidylinositol as substrate incubated for 60 mins in presence of ATP by Kinase Glo luminescence assay
[18] = target: Serine/threonine-protein kinase mTOR (Rattus norvegicus, UniProt P42346); assay: Inhibition of rat brain mTOR using GST-p70S6K fusion protein as substrate preincubated for 30 mins followed by ATP addition and measured after 30 mins by K-Lisa assay; assay type: tissue-based

DNA-dependent protein kinase catalytic subunit (Homo sapiens), sequence (P78527 whole entry): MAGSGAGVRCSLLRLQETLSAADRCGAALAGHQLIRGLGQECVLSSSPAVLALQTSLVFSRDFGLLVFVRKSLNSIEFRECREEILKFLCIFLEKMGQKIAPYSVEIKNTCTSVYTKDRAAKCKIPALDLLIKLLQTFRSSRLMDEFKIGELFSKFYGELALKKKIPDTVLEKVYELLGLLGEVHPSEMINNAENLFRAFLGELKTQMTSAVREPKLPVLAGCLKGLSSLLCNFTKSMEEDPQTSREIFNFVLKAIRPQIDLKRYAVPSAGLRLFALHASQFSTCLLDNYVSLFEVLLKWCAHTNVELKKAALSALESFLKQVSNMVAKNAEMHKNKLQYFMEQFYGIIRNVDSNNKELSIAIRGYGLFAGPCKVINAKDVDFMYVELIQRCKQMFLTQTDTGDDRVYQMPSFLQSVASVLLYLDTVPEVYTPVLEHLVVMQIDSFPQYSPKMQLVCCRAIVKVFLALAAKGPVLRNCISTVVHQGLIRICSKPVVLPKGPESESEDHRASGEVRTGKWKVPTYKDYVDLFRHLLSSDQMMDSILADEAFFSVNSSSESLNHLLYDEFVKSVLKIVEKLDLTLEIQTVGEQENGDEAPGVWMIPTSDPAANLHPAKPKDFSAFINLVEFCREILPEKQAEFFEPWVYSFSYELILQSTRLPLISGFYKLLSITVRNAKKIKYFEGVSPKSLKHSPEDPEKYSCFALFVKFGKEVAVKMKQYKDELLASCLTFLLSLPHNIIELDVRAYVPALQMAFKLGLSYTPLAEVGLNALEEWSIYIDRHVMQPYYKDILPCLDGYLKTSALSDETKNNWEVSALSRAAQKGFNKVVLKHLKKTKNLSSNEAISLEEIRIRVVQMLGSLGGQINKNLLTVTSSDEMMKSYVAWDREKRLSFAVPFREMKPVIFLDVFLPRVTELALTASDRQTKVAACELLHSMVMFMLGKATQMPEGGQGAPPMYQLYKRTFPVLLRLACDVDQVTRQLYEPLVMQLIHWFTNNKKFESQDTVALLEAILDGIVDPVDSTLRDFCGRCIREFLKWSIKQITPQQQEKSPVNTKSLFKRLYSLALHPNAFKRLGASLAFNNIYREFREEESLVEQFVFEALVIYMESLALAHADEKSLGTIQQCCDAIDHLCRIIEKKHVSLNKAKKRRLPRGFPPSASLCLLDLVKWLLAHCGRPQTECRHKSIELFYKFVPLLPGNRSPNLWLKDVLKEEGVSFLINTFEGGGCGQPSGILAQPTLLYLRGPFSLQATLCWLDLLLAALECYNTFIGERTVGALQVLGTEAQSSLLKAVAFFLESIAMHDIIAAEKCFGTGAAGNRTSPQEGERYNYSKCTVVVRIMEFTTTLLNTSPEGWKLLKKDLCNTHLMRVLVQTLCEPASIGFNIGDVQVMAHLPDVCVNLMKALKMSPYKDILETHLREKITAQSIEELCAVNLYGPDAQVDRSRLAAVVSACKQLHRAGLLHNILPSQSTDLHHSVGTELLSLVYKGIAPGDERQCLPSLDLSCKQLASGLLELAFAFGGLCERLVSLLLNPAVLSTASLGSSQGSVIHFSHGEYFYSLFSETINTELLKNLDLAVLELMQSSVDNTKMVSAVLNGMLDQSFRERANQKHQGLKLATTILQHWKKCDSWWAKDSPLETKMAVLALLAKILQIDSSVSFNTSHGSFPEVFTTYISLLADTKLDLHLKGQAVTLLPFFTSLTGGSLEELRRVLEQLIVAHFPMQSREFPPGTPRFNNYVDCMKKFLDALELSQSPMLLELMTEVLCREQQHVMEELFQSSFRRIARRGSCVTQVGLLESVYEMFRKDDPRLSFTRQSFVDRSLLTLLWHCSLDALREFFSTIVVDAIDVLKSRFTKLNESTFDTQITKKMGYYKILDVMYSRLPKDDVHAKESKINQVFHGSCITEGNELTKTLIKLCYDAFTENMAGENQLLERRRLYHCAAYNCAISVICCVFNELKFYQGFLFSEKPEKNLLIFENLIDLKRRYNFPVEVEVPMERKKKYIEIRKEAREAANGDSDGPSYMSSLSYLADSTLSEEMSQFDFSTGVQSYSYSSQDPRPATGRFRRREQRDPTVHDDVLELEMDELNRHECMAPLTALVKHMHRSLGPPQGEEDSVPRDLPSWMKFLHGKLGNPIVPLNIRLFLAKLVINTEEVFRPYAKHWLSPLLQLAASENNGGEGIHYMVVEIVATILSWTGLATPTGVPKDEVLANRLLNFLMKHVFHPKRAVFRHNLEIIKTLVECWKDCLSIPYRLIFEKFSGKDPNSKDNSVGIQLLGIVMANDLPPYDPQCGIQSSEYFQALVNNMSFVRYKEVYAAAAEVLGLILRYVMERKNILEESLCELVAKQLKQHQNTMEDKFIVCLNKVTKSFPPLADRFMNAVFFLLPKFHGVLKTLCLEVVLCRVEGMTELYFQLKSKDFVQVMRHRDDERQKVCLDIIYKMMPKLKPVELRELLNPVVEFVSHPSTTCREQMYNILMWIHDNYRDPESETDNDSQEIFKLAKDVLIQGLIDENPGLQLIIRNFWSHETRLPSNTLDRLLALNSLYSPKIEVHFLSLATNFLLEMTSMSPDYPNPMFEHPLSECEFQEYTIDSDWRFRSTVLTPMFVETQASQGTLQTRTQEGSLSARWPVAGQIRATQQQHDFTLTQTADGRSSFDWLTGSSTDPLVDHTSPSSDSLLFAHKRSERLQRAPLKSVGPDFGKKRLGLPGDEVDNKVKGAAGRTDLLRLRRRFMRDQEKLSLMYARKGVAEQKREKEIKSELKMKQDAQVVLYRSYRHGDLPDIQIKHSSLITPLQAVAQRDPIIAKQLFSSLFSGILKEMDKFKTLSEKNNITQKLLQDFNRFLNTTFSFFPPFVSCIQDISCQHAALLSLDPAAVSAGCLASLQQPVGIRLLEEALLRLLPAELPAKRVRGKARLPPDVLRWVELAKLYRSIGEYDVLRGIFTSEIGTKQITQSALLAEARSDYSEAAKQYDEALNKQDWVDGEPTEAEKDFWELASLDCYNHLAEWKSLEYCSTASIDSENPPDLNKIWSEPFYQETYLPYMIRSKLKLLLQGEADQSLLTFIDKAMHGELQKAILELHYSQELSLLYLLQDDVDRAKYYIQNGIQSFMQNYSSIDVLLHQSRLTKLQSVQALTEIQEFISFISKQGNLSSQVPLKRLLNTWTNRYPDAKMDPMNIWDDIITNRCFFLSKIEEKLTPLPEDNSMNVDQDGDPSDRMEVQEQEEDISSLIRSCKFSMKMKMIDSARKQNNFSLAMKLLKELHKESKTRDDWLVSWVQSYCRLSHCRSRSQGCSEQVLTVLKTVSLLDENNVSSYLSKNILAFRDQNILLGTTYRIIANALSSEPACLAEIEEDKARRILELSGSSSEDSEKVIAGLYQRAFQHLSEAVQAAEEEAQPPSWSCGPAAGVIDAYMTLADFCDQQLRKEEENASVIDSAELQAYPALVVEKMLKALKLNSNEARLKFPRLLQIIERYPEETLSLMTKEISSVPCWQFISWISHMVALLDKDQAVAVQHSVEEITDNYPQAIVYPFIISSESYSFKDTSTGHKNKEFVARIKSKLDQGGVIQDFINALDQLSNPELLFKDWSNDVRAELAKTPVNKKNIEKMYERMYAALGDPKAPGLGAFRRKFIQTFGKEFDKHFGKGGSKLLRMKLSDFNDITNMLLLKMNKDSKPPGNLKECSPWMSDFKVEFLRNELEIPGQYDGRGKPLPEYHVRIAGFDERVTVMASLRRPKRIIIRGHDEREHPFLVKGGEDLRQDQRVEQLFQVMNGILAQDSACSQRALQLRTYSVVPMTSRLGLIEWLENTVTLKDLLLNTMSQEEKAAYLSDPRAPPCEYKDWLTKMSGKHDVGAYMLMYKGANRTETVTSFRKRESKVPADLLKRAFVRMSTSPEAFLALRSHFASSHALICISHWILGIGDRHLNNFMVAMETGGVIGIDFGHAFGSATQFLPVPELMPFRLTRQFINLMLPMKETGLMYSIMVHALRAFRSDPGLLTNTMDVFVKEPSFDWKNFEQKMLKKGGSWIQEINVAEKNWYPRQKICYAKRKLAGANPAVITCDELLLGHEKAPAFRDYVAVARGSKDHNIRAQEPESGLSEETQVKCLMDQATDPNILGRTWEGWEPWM
Phosphatidylinositol 4,5-bisphosphate 3-kinase catalytic subunit beta isoform, sequence (P42338 whole entry, the tested form may be a part, canonical isoform): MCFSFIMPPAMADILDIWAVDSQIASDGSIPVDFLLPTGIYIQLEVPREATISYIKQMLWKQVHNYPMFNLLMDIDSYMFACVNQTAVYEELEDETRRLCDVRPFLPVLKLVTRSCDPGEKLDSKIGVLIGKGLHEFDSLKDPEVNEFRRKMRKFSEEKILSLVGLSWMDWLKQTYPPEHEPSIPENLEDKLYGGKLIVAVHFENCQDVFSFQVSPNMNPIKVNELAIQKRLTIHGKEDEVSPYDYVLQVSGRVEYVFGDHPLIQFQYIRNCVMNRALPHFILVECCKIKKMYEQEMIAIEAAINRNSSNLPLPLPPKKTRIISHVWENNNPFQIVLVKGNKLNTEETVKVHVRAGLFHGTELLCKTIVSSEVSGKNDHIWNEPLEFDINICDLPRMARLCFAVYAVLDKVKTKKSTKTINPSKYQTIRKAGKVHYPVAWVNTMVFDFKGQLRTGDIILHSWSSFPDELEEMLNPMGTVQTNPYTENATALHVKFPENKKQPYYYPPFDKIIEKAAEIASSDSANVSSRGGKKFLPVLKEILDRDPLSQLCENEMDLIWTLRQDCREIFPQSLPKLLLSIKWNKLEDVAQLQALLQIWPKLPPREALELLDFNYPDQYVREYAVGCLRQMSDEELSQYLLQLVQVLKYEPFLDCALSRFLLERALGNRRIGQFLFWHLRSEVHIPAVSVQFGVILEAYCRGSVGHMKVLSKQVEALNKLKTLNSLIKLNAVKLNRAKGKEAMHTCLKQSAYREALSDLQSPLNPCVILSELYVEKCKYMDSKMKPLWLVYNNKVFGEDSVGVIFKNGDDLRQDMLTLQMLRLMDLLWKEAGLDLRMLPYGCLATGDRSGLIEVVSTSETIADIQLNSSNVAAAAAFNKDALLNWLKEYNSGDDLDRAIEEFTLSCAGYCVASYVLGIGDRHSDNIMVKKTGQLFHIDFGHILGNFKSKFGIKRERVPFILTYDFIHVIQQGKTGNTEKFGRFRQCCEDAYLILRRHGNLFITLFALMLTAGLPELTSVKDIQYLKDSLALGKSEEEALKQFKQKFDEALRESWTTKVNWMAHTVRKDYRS

For `Cc1nc2cnc3ccc(-c4cnc5[nH]ccc5c4)cc3c2n1-c1ccc(C(C)(C)C#N)nc1`, the IC50 [1] was 3.5 nM, the inhibition [2] was “Active” and the IC50 (HCT-15) was 170 nM. It also gave an IC50 (NCI-H3122) of 290 nM, a viability at 0.1562 µM (HeLa [3]) of 93.5% and a viability at 0.625 µM (HeLa [4]) of 70.1%. For the same molecule, the viability at 2.5 µM (HeLa [5]) was 27.8%, the Activity (HeLa [6]) was 38.86% and the inhibition (HeLa [7]) was “Dde”. It also gave an AUC [8] of 992 ng·h/mL, an AUC [9] of 7620 ng·h/mL and an inhibition in vivo at 60 mg/kg (HeLa [10]) of 80.2%. For the same molecule, the inhibition in vivo at 30 mg/kg (SW-620 [11]) was 70.8%, the inhibition in vivo at 60 mg/kg (SW-620 [12]) was 81% and the Activity [13] was “Non-Toxic”. For the same molecule, the inhibition (Mus musculus) was “Active”, the Activity (HeLa [14]) was “Active” and the Activity [15] was “Non-Toxic”. The Activity [16] was “Non-Toxic”, the IC50 [17] was 75 nM and the IC50 [18] was 20.7 nM.
